In patent US4346094A, “3-Aryl-5-isothiazolecarboxylic acids and related compounds used to lower uric acid levels” (Eli Lilly and Company, priority 1980, dated 1982):
Like-named read-outs stand apart in the source and are kept apart here.

Biological target: T1, xanthine oxidase (Bos taurus, UniProt P80457)
T1 construct: purchased Sigma Chemical Company, St. Louis, Mo; host or cells: milk (grade III, chromatographically purified)
Assay: in vitro xanthine oxidase assay (rate of uric acid formation from xanthine)
Assay type: biochemical
Experimental: Since uric acid is produced by the oxidation of, first, hypoxanthine to xanthine and, second, of xanthine to uric acid via the enzyme, xanthine oxidase, an inhibitor of xanthine oxidase in vivo would obviously decrease the uric acid concentrations in the blood.
Xanthine oxidase activity was measured at room temperature by the rate of uric acid formation from xanthine substrate. In a total volume of 1 ml., the incubation mixture contained 50 micromoles of potassium phosphate buffer at pH 7.4, 0.05 micromoles of xanthine and 0.01 units of enzyme preparation (chromatographically purified milk xanthine oxidase, grade III, obtained from Sigma Chemical Company, St. Louis, Mo.). The absorbence change at 292 nm was recorded by a Gilford recording spectrophotometer and the uric acid formed was calculated using an extinction coefficient of 12 mM^-1 Cm^-1 at 292 nm.

[1] = milk xanthine oxidase 0.01 units, 0.05 micromoles xanthine in 1 ml, pH 7.4, room temperature, 292 nm, read-out: I50 (concentration of drug which inhibits 50% of the oxidation of xanthine to uric acid by the xanthine oxidase preparation) (converted)

T1 sequence (P80457 whole entry): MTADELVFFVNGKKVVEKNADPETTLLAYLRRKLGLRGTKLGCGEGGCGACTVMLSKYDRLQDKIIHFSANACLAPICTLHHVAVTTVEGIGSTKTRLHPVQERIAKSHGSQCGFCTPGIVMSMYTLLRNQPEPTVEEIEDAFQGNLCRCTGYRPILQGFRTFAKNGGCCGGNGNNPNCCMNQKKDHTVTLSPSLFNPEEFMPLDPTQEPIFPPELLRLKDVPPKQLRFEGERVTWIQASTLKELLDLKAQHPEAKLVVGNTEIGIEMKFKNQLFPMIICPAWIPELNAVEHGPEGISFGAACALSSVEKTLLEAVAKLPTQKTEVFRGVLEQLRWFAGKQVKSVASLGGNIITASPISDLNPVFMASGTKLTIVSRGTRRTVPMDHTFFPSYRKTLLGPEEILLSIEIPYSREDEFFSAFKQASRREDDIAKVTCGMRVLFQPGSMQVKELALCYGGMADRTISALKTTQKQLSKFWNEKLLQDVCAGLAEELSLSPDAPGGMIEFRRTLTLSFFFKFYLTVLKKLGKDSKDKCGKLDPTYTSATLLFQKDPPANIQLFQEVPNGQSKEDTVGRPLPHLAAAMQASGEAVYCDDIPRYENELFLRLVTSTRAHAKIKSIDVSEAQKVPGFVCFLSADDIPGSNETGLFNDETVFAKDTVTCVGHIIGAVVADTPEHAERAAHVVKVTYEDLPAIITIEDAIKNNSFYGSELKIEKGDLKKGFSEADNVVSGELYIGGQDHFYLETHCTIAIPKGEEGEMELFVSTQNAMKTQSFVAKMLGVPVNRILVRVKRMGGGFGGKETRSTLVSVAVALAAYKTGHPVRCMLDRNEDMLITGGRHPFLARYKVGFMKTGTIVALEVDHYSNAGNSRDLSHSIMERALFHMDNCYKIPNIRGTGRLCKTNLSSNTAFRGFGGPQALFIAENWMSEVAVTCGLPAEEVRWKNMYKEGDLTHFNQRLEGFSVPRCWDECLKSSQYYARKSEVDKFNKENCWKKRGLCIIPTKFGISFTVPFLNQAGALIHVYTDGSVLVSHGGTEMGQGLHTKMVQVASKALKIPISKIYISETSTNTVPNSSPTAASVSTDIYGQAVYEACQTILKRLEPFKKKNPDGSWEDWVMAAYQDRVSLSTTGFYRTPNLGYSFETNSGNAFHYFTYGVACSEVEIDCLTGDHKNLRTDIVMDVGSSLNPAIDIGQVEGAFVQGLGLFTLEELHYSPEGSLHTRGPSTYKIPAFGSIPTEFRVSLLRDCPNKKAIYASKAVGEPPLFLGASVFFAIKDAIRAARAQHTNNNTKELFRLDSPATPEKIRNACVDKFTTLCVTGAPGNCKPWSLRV

Structure (SMILES) | IC50 [1] [nM] | IC50 [nM]
Nc1c(-c2ccc3c(c2)OCO3)nsc1C(=O)O [3,4-methylenedioxy, 3-(1,3-benzodioxyl-5-yl)-4-amino-5-isothiazolecarboxylic acid] | 492 | –
Nc1c(-c2cccs2)nsc1C(=O)O [Ar=2-thienyl, 3-(2-thienyl)-4-amino-5-isothiazolecarboxylic acid] | 3310 | –
Nc1c(-c2cccnc2)nsc1C(=O)O [Ar=3-pyridinyl, 3-(3-pyridyl)-4-amino-5-isothiazolecarboxylic acid] | 1490 | –
O=C(O)c1snc(-c2cccc(C(F)(F)F)c2)c1F [R=3-CF3, X=F, 3-(3-trifluoromethylphenyl)-4-fluoro-5-isothiazolecarboxylic acid] | 68.7 | –
O=C(O)c1snc(-c2cccc(C(F)(F)F)c2)c1I [R=3-CF3, X=I, 3-(3-trifluoromethylphenyl)-4-iodo-5-isothiazolecarboxylic acid] | – | 238
CNc1c(-c2cccc(C(F)(F)F)c2)nsc1C(=O)O [R=3-CF3, X=NHCH3, 3-(3-trifluoromethylphenyl)-4-methylamino-5-isothiazolecarboxylic acid] | 562 | –
COc1ccc(-c2nsc(C(=O)O)c2N)cc1C [R=3-CH3, R^1=4-OCH3, 3-(4-methoxy-3-methylphenyl)-4-amino-5-isothiazolecarboxylic acid] | 151 | –
Cc1cccc(-c2nsc(C(=O)O)c2N)c1 [R=3-CH3, R^1=H, 3-(3-tolyl)-4-amino-5-isothiazolecarboxylic acid] | 640 | –
Cc1cccc(-c2nsc(C(=O)O)c2Cl)c1 [R=3-CH3, X=Cl, 3-(3-tolyl)-4-chloro-5-isothiazolecarboxylic acid] | 134 | –
Nc1c(-c2ccc(Cl)c(Cl)c2)nsc1C(=O)O [R=3-Cl, R^1=4-Cl, 3-(3,4-dichlorophenyl)-4-amino-5-isothiazolecarboxylic acid] | 214 | –
Nc1c(-c2cccc(Cl)c2)nsc1C(=O)O [R=3-Cl, R^1=H, 3-(3-chlorophenyl)-4-amino-5-isothiazolecarboxylic acid] | 267 | –
O=C(O)c1snc(-c2cccc(Cl)c2)c1Br [R=3-Cl, X=Br, 3-(3-chlorophenyl)-4-bromo-5-isothiazolecarboxylic acid] | 81.6 | –
O=C(O)c1snc(-c2cccc(Cl)c2)c1Cl [R=3-Cl, X=Cl, 3-(3-chlorophenyl)-4-chloro-5-isothiazolecarboxylic acid] | – | 69.3
O=C(O)c1cc(-c2cccc(Cl)c2)ns1 [R=3-Cl, X=H, 3-(3-chlorophenyl)-5-isothiazolecarboxylic acid] | 334 | –
O=C(O)c1snc(-c2cccc(Cl)c2)c1I [R=3-Cl, X=I, 3-(3-chlorophenyl)-4-iodo-5-isothiazolecarboxylic acid] | 903 | –
COc1ccc(-c2nsc(C(=O)O)c2N)cc1F [R=3-F, R^1=4-OCH3, 3-(3-fluoro-4-methoxyphenyl)-4-amino-5-isothiazolecarboxylic acid] | 67.1 | –
Nc1c(-c2cccc(F)c2)nsc1C(=O)O [R=3-F, R^1=H, 3-(3-fluorophenyl)-4-amino-5-isothiazolecarboxylic acid] | 1260 | –
O=C(O)c1snc(-c2cccc(F)c2)c1Cl [R=3-F, X=Cl, 3-(3-fluorophenyl)-4-chloro-5-isothiazolecarboxylic acid] | 116 | –
COc1ccc(-c2nsc(C(=O)O)c2N)cc1OC [R=3-OCH3, R^1=4-OCH3, 3-(3,4-dimethoxyphenyl)-4-amino-5-isothiazolecarboxylic acid] | 410 | –
COc1cc(OC)cc(-c2nsc(C(=O)O)c2N)c1 [R=3-OCH3, R^1=5-OCH3, 3-(3,5-dimethoxyphenyl)-4-amino-5-isothiazolecarboxylic acid] | 89.2 | –
COc1cccc(-c2nsc(C(=O)O)c2N)c1 [R=3-OCH3, R^1=H, 3-(3-methoxyphenyl)-4-amino-5-isothiazolecarboxylic acid] | 1160 | –
COc1cccc(-c2nsc(C(=O)O)c2Cl)c1 [R=3-OCH3, X=Cl, 3-(3-anisyl)-4-chloro-5-isothiazolecarboxylic acid] | 108 | –
COc1cccc(-c2cc(C(=O)O)sn2)c1 [R=3-OCH3, X=H, 3-(3-anisyl)-5-isothiazolecarboxylic acid] | 3740 | –

Structure (SMILES) | IC50 [1] [nM] | IC50 [nM]
COc1cccc(-c2nsc(C(=O)O)c2I)c1 [R=3-OCH3, X=I, 3-(3-anisyl)-4-iodo-5-isothiazolecarboxylic acid] | 1720 | –
Nc1c(-c2ccc(Br)cc2)nsc1C(=O)O [R=4-Br, R^1=H, 3-(4-bromophenyl)-4-amino-5-isothiazolecarboxylic acid] | 2760 | –
Nc1c(-c2ccc(C(F)(F)F)cc2)nsc1C(=O)O [R=4-CF3, R^1=H, 3-(4-trifluoromethylphenyl)-4-amino-5-isothiazolecarboxylic acid] | 624 | –
Cc1ccc(-c2nsc(C(=O)O)c2N)cc1 [R=4-CH3, R^1=H, 3-(p-tolyl)-4-amino-5-isothiazolecarboxylic acid] | 1200 | –
Cc1ccc(-c2nsc(C(=O)O)c2Cl)cc1 [R=4-CH3, X=Cl, 3-(4-tolyl)-4-chloro-5-isothiazolecarboxylic acid] | 315 | –
Nc1c(-c2ccc(Cl)cc2)nsc1C(=O)O [R=4-Cl, R^1=H, 3-(4-chlorophenyl)-4-amino-5-isothiazolecarboxylic acid] | 2750 | –
O=C(O)c1snc(-c2ccc(Cl)cc2)c1Br [R=4-Cl, X=Br, 3-(4-chlorophenyl)-4-bromo-5-isothiazolecarboxylic acid] | – | 314
O=C(O)c1snc(-c2ccc(Cl)cc2)c1Cl [R=4-Cl, X=Cl, 3-(4-chlorophenyl)-4-chloro-5-isothiazolecarboxylic acid] | 365 | –
O=C(O)c1cc(-c2ccc(Cl)cc2)ns1 [R=4-Cl, X=H, 3-(4-chlorophenyl)-5-isothiazolecarboxylic acid] | 1960 | –
O=C(O)c1snc(-c2ccc(Cl)cc2)c1I [R=4-Cl, X=I, 3-(4-chlorophenyl)-4-iodo-5-isothiazolecarboxylic acid] | 2740 | –
Nc1c(-c2ccc(F)cc2)nsc1C(=O)O [R=4-F, R^1=H, 3-(4-fluorophenyl)-4-amino-5-isothiazolecarboxylic acid] | 1600 | –
O=C(O)c1snc(-c2ccc(F)cc2)c1Cl [R=4-F, X=Cl, 3-(4-fluorophenyl)-4-chloro-5-isothiazolecarboxylic acid] | 202 | –
CCOc1ccc(-c2nsc(C(=O)O)c2N)cc1 [R=4-OC2 H5, R^1=H, 3-(4-ethoxyphenyl)-4-amino-5-isothiazolecarboxylic acid] | 106 | –
CCCOc1ccc(-c2nsc(C(=O)O)c2N)cc1 [R=4-OC3 H7, R^1=H, 3-(4-propoxyphenyl)-4-amino-5-isothiazolecarboxylic acid] | 86.2 | –
COc1ccc(-c2nsc(C(=O)O)c2N)cc1 [R=4-OCH3, R^1=H, 4-amino-3-(4-methoxyphenyl)-5-isothiazolecarboxylic acid] | 559 | –
COc1ccc(-c2nsc(C(=O)O)c2Cl)cc1 [R=4-OCH3, X=Cl, 3-(4-anisyl)-4-chloro-5-isothiazolecarboxylic acid] | 51.9 | –
COc1ccc(-c2cc(C(=O)O)sn2)cc1 [R=4-OCH3, X=H, 3-(4-anisyl)-5-isothiazolecarboxylic acid] | 276 | –
CC(C)Oc1ccc(-c2nsc(C(=O)O)c2N)cc1 [R=4-OCH(CH3)2, R^1=H, 3-(4-isopropoxyphenyl)-4-amino-5-isothiazolecarboxylic acid] | 68.3 | –
Nc1c(-c2ccccc2)nsc1C(=O)O [R=H, R^1=H, 3-phenyl-4-amino-5-isothiazolecarboxylic acid] | 2130 | –
O=C(O)c1snc(-c2ccccc2)c1Cl [R=H, X=Cl, 3-phenyl-4-chloro-5-isothiazolecarboxylic acid] | 225 | –
O=C(O)c1cc(-c2ccccc2)ns1 [R=H, X=H, 3-phenyl-5-isothiazolecarboxylic acid] | 2340 | –
O=C(O)c1snc(-c2ccccc2)c1O [R=H, X=OH, 3-phenyl-4-hydroxy-5-isothiazolecarboxylic acid] | 203 | –
